Data on twelve molecules can be found in PubChem BioAssay (NCI).

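96-well plates; 48 h exposure; 5 concentrations. Endpoints by linear interpolation between flanking doses. Not reached: highest tested concentration assigned. TGI: total growth inhibition.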

Test systems include SK-MEL-5 melanoma; CCRF-CEM leukemia; SK-MEL-28 melanoma; 786-0 renal; TK-10 renal; SF-295 CNS; HT29 colon; DU-145 prostate; OVCAR-5 ovarian; SK-OV-3 ovarian; HCT-15 colon; SN12C renal; NCI/ADR-RES ovarian; HOP-62 NSCLC; KM12 colon; A549 NSCLC.
What all share (assay): inhibition of tumour cell growth, NCI panel, 48 h

`CC[C@@H](CCCC[C@@H]1CC[C@H]2CC(=O)C[C@@H]12)OC`: the TGI in the assay on SK-MEL-5 melanoma, with CCRF-CEM leukemia, with SK-MEL-28 melanoma, in the assay with 786-0 renal, in the assay on TK-10 renal and with SF-295 CNS was above 100 µM each time. Also, the TGI in the assay on HT29 colon, in the assay with DU-145 prostate, with OVCAR-5 ovarian, in the assay with SK-OV-3 ovarian, in the assay on HCT-15 colon and in the assay with SN12C renal was above 100 µM throughout. Also, the TGI in the assay on NCI/ADR-RES ovarian, in the assay with HOP-62 NSCLC, with KM12 colon and with A549 NSCLC was above 100 µM each time.

Turning to `CCOc1cc(/C=N\N(C)C)cc(/C=N\N(C)C)c1O`, the TGI in the assay on SK-MEL-5 melanoma was 73.2 µM; in the assay with CCRF-CEM leukemia, above 100 µM; in the assay on SK-MEL-28 melanoma it was above 100 µM; in the assay on 786-0 renal it was above 100 µM; in the assay on TK-10 renal, above 100 µM; with SF-295 CNS it was above 100 µM. Further, the TGI with HT29 colon, in the assay with DU-145 prostate, with OVCAR-5 ovarian, with SK-OV-3 ovarian, in the assay with HCT-15 colon and with SN12C renal was above 100 µM throughout. Besides, the TGI with NCI/ADR-RES ovarian, with HOP-62 NSCLC, in the assay with KM12 colon and with A549 NSCLC was above 100 µM throughout.

As to `CNNC1=NS(=O)(=O)c2cc(C)c(Cl)cc2S1`, the TGI in the assay on SK-MEL-5 melanoma, in the assay with CCRF-CEM leukemia, in the assay on SK-MEL-28 melanoma, in the assay with 786-0 renal, in the assay on TK-10 renal and with SF-295 CNS was above 10 µM each time. For the same molecule, the TGI in the assay on HT29 colon, in the assay with DU-145 prostate, in the assay with OVCAR-5 ovarian, with SK-OV-3 ovarian, with HCT-15 colon and in the assay with SN12C renal was above 10 µM each time. The TGI in the assay with NCI/ADR-RES ovarian, in the assay with HOP-62 NSCLC, in the assay on KM12 colon and in the assay on A549 NSCLC was above 10 µM throughout.

As to `COc1cc(N(CCC#N)CCC#N)ccc1/C(N=Nc1ccc(C)cc1)=N/NC(=O)c1cc(Br)ccc1O`, the TGI with SK-MEL-5 melanoma was 37 µM; with CCRF-CEM leukemia, 25.2 µM; with SK-MEL-28 melanoma, 85.2 µM; in the assay on 786-0 renal it was above 100 µM; with TK-10 renal it was 82 µM; in the assay on SF-295 CNS, above 100 µM. Also, the TGI is above 100 µM in the assay on HT29 colon; 94.7 µM in the assay on DU-145 prostate; above 100 µM in the assay on OVCAR-5 ovarian; above 100 µM in the assay with SK-OV-3 ovarian; 33 µM with HCT-15 colon; 54.9 µM with SN12C renal. Further, the TGI in the assay on NCI/ADR-RES ovarian was above 100 µM; with HOP-62 NSCLC, 96.5 µM; in the assay with KM12 colon, 44.9 µM; with A549 NSCLC, above 100 µM.

With `CN(C)CCN1C(=O)CC[C@@]2(C)C1=CC[C@@H]1[C@@H]2CC[C@@]2(C)[C@H]1CC[C@]2(C)O`, the TGI in the assay with SK-MEL-5 melanoma, in the assay with CCRF-CEM leukemia, in the assay with SK-MEL-28 melanoma, in the assay with 786-0 renal, with TK-10 renal and in the assay on SF-295 CNS was above 100 µM each time. In addition, the TGI with HT29 colon, with DU-145 prostate, in the assay on OVCAR-5 ovarian, in the assay on SK-OV-3 ovarian, in the assay with HCT-15 colon and with SN12C renal was above 100 µM in each case. Moreover, the TGI in the assay with NCI/ADR-RES ovarian, with HOP-62 NSCLC, with KM12 colon and in the assay with A549 NSCLC was above 100 µM throughout.

Take `O=C(c1ccc(Cl)cc1Cl)N(Cc1cccnc1)C(=S)N(Cc1cccnc1)C(=O)c1ccc(Cl)cc1Cl`: the TGI in the assay with SK-MEL-5 melanoma was 11.9 µM; in the assay on CCRF-CEM leukemia, above 100 µM; with SK-MEL-28 melanoma it was 33.7 µM; in the assay with 786-0 renal, 5.34 µM; with TK-10 renal it was 8.7 µM; with SF-295 CNS it was 41.5 µM. Moreover, the TGI with HT29 colon is 5.52 µM; in the assay on DU-145 prostate, 13 µM; in the assay on OVCAR-5 ovarian, 23.2 µM; in the assay with SK-OV-3 ovarian, 37.1 µM; with HCT-15 colon it was 15.4 µM; with SN12C renal, 18.3 µM. Moreover, the TGI was determined as 76 µM in the assay on NCI/ADR-RES ovarian, 7.12 µM with HOP-62 NSCLC, 18.8 µM in the assay with KM12 colon and 38 µM in the assay with A549 NSCLC.

Turning to `Cc1cc2nc(N3C(=O)/C(=C/c4cccc([N+](=O)[O-])c4)N=C3c3ccccc3)sc2cc1C`, the TGI was above 100 µM in the assay on SK-MEL-5 melanoma; 23.4 µM in the assay with CCRF-CEM leukemia; above 100 µM in the assay with SK-MEL-28 melanoma; above 100 µM in the assay with 786-0 renal; above 100 µM with TK-10 renal; above 100 µM in the assay with SF-295 CNS. The TGI in the assay on HT29 colon is 75.9 µM; in the assay on DU-145 prostate, above 100 µM; with OVCAR-5 ovarian, above 100 µM; in the assay with SK-OV-3 ovarian, above 100 µM; in the assay on HCT-15 colon it was above 100 µM; with SN12C renal, above 100 µM. Besides, the TGI in the assay with NCI/ADR-RES ovarian, with HOP-62 NSCLC, with KM12 colon and in the assay with A549 NSCLC was above 100 µM throughout.

In the case of `CN(C)CCOc1ccc(I)cc1Cc1ccccc1`, the TGI with SK-MEL-5 melanoma was 14.2 µM; in the assay on CCRF-CEM leukemia, 18.5 µM; in the assay with SK-MEL-28 melanoma, 16.6 µM; in the assay on 786-0 renal, 23 µM; in the assay on TK-10 renal, 25.5 µM; with SF-295 CNS it was 30.1 µM. In addition, the TGI in the assay with HT29 colon turned out to be 17 µM; in the assay on DU-145 prostate, 31.6 µM; with OVCAR-5 ovarian it was 29.7 µM; in the assay on SK-OV-3 ovarian it was 33 µM; in the assay on HCT-15 colon, 25.1 µM; in the assay on SN12C renal, 25 µM. The TGI was 29.8 µM with NCI/ADR-RES ovarian, 28.6 µM in the assay with HOP-62 NSCLC, 27 µM with KM12 colon and 30.5 µM in the assay with A549 NSCLC.

Turning to `CC(NC1=CC(=O)c2ncccc2C1=O)C(O)c1ccccc1` (configuration not stated), the TGI was 2.6 µM in the assay with SK-MEL-5 melanoma; above 100 µM in the assay with CCRF-CEM leukemia; 10.9 µM in the assay with SK-MEL-28 melanoma; 26.2 µM in the assay with 786-0 renal; above 100 µM with TK-10 renal; 14.9 µM in the assay on SF-295 CNS. Also, the TGI came to 28.3 µM in the assay on HT29 colon; 16.6 µM with DU-145 prostate; 29.3 µM in the assay on OVCAR-5 ovarian; 71.7 µM with SK-OV-3 ovarian; 17.3 µM with HCT-15 colon; 24.9 µM with SN12C renal. Besides, the TGI in the assay on NCI/ADR-RES ovarian was found to be 43.1 µM; with HOP-62 NSCLC it was 25.9 µM; with KM12 colon, 24.8 µM; in the assay with A549 NSCLC, 12.8 µM.

`COc1c(Cl)ccc(Cl)c1C(=O)NNC(=O)c1c(Cl)c(Cl)c(Cl)c(Cl)c1-c1nc2ccc(C(=O)c3ccccc3)cc2[nH]1`: the TGI in the assay with SK-MEL-5 melanoma, with CCRF-CEM leukemia, with SK-MEL-28 melanoma, in the assay with 786-0 renal, with TK-10 renal and in the assay on SF-295 CNS was above 100 µM each time. In addition, the TGI in the assay with HT29 colon, in the assay with DU-145 prostate, in the assay on OVCAR-5 ovarian, with SK-OV-3 ovarian, in the assay with HCT-15 colon and with SN12C renal was above 100 µM throughout. The TGI in the assay with NCI/ADR-RES ovarian, in the assay on HOP-62 NSCLC, with KM12 colon and in the assay with A549 NSCLC was above 100 µM each time.

As to `COCCOCN(C(=O)C1=CCC2(CC1)OCCO2)c1ccccc1I`, the TGI in the assay on SK-MEL-5 melanoma, with CCRF-CEM leukemia, with SK-MEL-28 melanoma, with 786-0 renal, with TK-10 renal and in the assay with SF-295 CNS was above 50 µM throughout. In addition, the TGI in the assay with HT29 colon, with DU-145 prostate, with OVCAR-5 ovarian, in the assay with SK-OV-3 ovarian, in the assay with HCT-15 colon and in the assay on SN12C renal was above 50 µM throughout. Moreover, the TGI with NCI/ADR-RES ovarian, with HOP-62 NSCLC, in the assay on KM12 colon and in the assay with A549 NSCLC was above 50 µM each time.

With `CC[C@@H]1CN2CCC1C[C@@H]2C(O)c1ccnc2ccc(OCCN3CCN(CCOc4ccc5nccc(C(O)[C@@H]6C[C@@H]7CCN6C[C@@H]7CC)c5c4)CC3)cc12` (some centres not stated), the TGI in the assay on SK-MEL-5 melanoma was determined as 32 µM; in the assay on CCRF-CEM leukemia, 15.7 µM; in the assay with SK-MEL-28 melanoma it was 35.5 µM; with 786-0 renal, 30.2 µM; in the assay with TK-10 renal, 29.1 µM; in the assay on SF-295 CNS, 30.5 µM. Also, the TGI in the assay with HT29 colon stood at 30.2 µM; in the assay with DU-145 prostate, 31.8 µM; with OVCAR-5 ovarian, 32.9 µM; with SK-OV-3 ovarian it was 33.2 µM; in the assay on HCT-15 colon it was 56.2 µM; in the assay with SN12C renal it was 28.9 µM. In addition, the TGI was above 100 µM in the assay with NCI/ADR-RES ovarian, 36.2 µM in the assay with HOP-62 NSCLC, 34 µM in the assay with KM12 colon and 29.8 µM in the assay on A549 NSCLC.
